Test results: US20260285850A1, “SUBSTITUTED OXAZOLIDINONES AND IMIDAZOLINONES AS HERBICIDES” (FMC CORPORATION, priority 2023, published 2026)

What was measured:
Format in all cases: in vivo
[1] = tested on: barnyardgrass (Echinochloa crus-galli); assay: Test A preemergence soil spray, visual injury rating 0-100; conditions: 10 days
Method in brief: (§1)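 Seeds sown in loam-sand blend got a preemergence directed soil spray, or emerged plants (2-10 cm, one- to two-leaf) got a postemergence spray, of compound in non-phytotoxic solvent with surfactant. After 10 days in greenhouse, injury rated visually versus untreated controls on a 0 (no effect) to 100 (complete control) scale.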

kochia (Bassia scoparia) [2] = assay: as above; conditions: 10 days
Method in brief: as §1

corn (Zea mays) [3] = assay: as above; conditions: 10 days
Method in brief: as §1

[4] = tested on: oat, wild (wild oat, Avena fatua); assay: as above; conditions: 10 days
Method in brief: as §1

[5] = tested on: ragweed (common ragweed, Ambrosia artemisiifolia); assay: as above; conditions: 10 days
Method in brief: as §1

[6] = tested on: ryegrass, Italian (italian ryegrass, Lolium multiflorum); assay: as above; conditions: 10 days
Method in brief: as §1

[7] = tested on: palmer (palmer amaranth, palmer pigweed, Amaranthus palmeri); assay: as above; conditions: 10 days
Method in brief: as §1

[8] = tested on: wheat (Triticum aestivum); assay: as above; conditions: 10 days
Method in brief: as §1

soybean (Glycine max) [9] = assay: as above; conditions: 10 days
Method in brief: as §1

[10] = tested on: blackgrass (Alopecurus myosuroides); assay: as above; conditions: 10 days
Method in brief: as §1

[11] = tested on: green foxtail (Setaria viridis); assay: as above; conditions: 10 days
Method in brief: as §1

[12] = tested on: barnyardgrass (Echinochloa crusgalli); assay: Test B flooded paddy test, visual plant response rating 0-100; conditions: 250 g ai/ha, Flood, applied to paddy water, evaluated after 13 days
Method in brief: (§2)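 Visual scores versus untreated controls were recorded 13 days after treatment of greenhouse-held plants. At the 2-leaf stage, pots were flooded 3 cm above the soil surface and compounds added straight to the water.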

[13] = tested on: ducksalad (Heteranthera limosa); assay: as above; conditions: 250 g ai/ha, Flood, applied to paddy water, evaluated after 13 days
Method in brief: as §2

rice (Oryza sativa) = assay: as above; conditions: 250 g ai/ha, Flood, applied to paddy water, evaluated after 13 days
Method in brief: as §2

[14] = tested on: sedge, umbrella (small-flower umbrella sedge, Cyperus difformis); assay: as above; conditions: 250 g ai/ha, Flood, applied to paddy water, evaluated after 13 days
Method in brief: as §2

[15] = tested on: barnyardgrass (Echinochloa crus-galli); assay: Test A postemergence application, visual injury rating 0-100
Method in brief: as §1

kochia (Bassia scoparia) [16] = assay: as above
Method in brief: as §1

corn (Zea mays) [17] = assay: as above
Method in brief: as §1

[18] = tested on: oat, wild (wild oat, Avena fatua); assay: as above
Method in brief: as §1

[19] = tested on: ragweed (common ragweed, Ambrosia artemisiifolia); assay: as above
Method in brief: as §1

[20] = tested on: ryegrass, Italian (italian ryegrass, Lolium multiflorum); assay: as above
Method in brief: as §1

[21] = tested on: palmer (palmer amaranth, palmer pigweed, Amaranthus palmeri); assay: as above
Method in brief: as §1

[22] = tested on: wheat (Triticum aestivum); assay: as above
Method in brief: as §1

[23] = tested on: horseweed (Erigeron canadensis); assay: as above
Method in brief: as §1

soybean (Glycine max) [24] = assay: as above
Method in brief: as §1

[25] = tested on: blackgrass (Alopecurus myosuroides); assay: as above
Method in brief: as §1

[26] = tested on: green foxtail (Setaria viridis); assay: as above
Method in brief: as §1

[27] = tested on: galium (catchweed bedstraw, Galium aparine); assay: as above
Method in brief: as §1

[28] = 62 g ai/ha, 0 = no effect, 100 = complete control
[29] = 62 g ai/ha, postemergence, 10 days, 0 = no effect, 100 = complete control
[30] = Postemergence, 16 g ai/ha, greenhouse 10 days, 0 no effect, 100 complete control

With `C=CC1(C(=O)NC2CC(C(=O)OC)C2)CN(c2cc(F)cc(F)c2)C(=O)O1` (stereo not shown) [Compound 173] the “Barnyardgrass plant response rating” value ([1]; 16 g ai/ha, 0 to 100 scale) was 40, the “Barnyardgrass plant response rating (0-100)” value [1, 28] was 100 and the “Kochia plant response rating” value (kochia (Bassia scoparia) [2]; 16 g ai/ha, 0 to 100 scale) was 10. For the same compound, the “Kochia plant response rating (0-100)” value (kochia (Bassia scoparia) [2]; [28]) was 80, the “Corn plant response rating” value (corn (Zea mays) [3]; 16 g ai/ha, 0 to 100 scale) was 50 and the “Corn plant response rating (0-100)” value (corn (Zea mays) [3]; [28]) was 90. For the same compound, the “Oat, Wild plant response rating” value ([4]; 16 g ai/ha, 0 to 100 scale) was 70, the “Oat, Wild plant response rating (0-100)” value [4, 28] was 90 and the “Ragweed plant response rating” value ([5]; 16 g ai/ha, 0 to 100 scale) was 0. For the same compound, the “Ragweed plant response rating (0-100)” value [5, 28] was 0, the “Ryegrass, Italian plant response rating” value ([6]; 16 g ai/ha, 0 to 100 scale) was 80 and the “Ryegrass, Italian plant response rating (0-100)” value [6, 28] was 90. For the same compound, the “Pigweed, Palmer plant response rating” value ([7]; 16 g ai/ha, 0 to 100 scale) was 20, the “Pigweed, Palmer plant response rating (0-100)” value [7, 28] was 90 and the “Wheat plant response rating” value ([8]; 16 g ai/ha, 0 to 100 scale) was 90. For the same compound, the “Wheat plant response rating (0-100)” value [8, 28] was 100, the “Soybean plant response rating” value (soybean (Glycine max) [9]; 16 g ai/ha, 0 to 100 scale) was 30 and the “Soybean plant response rating (0-100)” value (soybean (Glycine max) [9]; [28]) was 70. The “Blackgrass plant response rating” value ([10]; 16 g ai/ha, 0 to 100 scale) was 90, the “Blackgrass plant response rating (0-100)” value [10, 28] was 90 and the “Foxtail, Green plant response rating” value ([11]; 16 g ai/ha, 0 to 100 scale) was 90. For the same compound, the “Foxtail, Green plant response rating (0-100)” value [11, 28] was 100, the “Plant response rating, Barnyardgrass (0 to 100 scale, 0 is no effect and 100 is complete control)” value [12] was 90 and the “Plant response rating, Ducksalad (0 to 100 scale, 0 is no effect and 100 is complete control)” value [13] was 95. For the same compound, the “Plant response rating, Rice (0 to 100 scale, 0 is no effect and 100 is complete control)” value (rice (Oryza sativa)) was 75, the “Plant response rating, Sedge, Umbrella (0 to 100 scale, 0 is no effect and 100 is complete control)” value [14] was 100 and the “Barnyardgrass plant response rating (0-100)” value [15, 29] was 90. For the same compound, the “Barnyardgrass plant response rating (0 to 100 scale)” value [15, 30] was 80, the “Kochia plant response rating (0-100)” value (kochia (Bassia scoparia) [16]; [29]) was 90 and the “Kochia plant response rating (0 to 100 scale)” value (kochia (Bassia scoparia) [16]; [30]) was 90. For the same compound, the “Corn plant response rating (0-100)” value (corn (Zea mays) [17]; [29]) was 100, the “Corn plant response rating (0 to 100 scale)” value (corn (Zea mays) [17]; [30]) was 100 and the “Oat, Wild plant response rating (0-100)” value [18, 29] was 90. For the same compound, the “Oat, Wild plant response rating (0 to 100 scale)” value [18, 30] was 90, the “Ragweed plant response rating (0-100)” value [19, 29] was 80 and the “Ragweed plant response rating (0 to 100 scale)” value [19, 30] was 0. For the same compound, the “Ryegrass, Italian plant response rating (0-100)” value [20, 29] was 90, the “Ryegrass, Italian plant response rating (0 to 100 scale)” value [20, 30] was 80 and the “Pigweed, Palmer plant response rating (0-100)” value [21, 29] was 90. For the same compound, the “Pigweed, Palmer plant response rating (0 to 100 scale)” value [21, 30] was 90, the “Wheat plant response rating (0-100)” value [22, 29] was 90 and the “Wheat plant response rating (0 to 100 scale)” value [22, 30] was 90. For the same compound, the “Horseweed plant response rating (0-100)” value [23, 29] was 50, the “Horseweed plant response rating (0 to 100 scale)” value [23, 30] was 0 and the “Soybean plant response rating (0-100)” value (soybean (Glycine max) [24]; [29]) was 50. For the same compound, the “Soybean plant response rating (0 to 100 scale)” value (soybean (Glycine max) [24]; [30]) was 50, the “Blackgrass plant response rating (0-100)” value [25, 29] was 90 and the “Blackgrass plant response rating (0 to 100 scale)” value [25, 30] was 90. For the same compound, the “Foxtail, Green plant response rating (0-100)” value [26, 29] was 90, the “Foxtail, Green plant response rating (0 to 100 scale)” value [26, 30] was 90 and the “Galium plant response rating (0-100)” value [27, 29] was 80. For the same compound, the “Galium plant response rating (0 to 100 scale)” value [27, 30] was 80.
